Biological target: T1, MR1 (Homo sapiens, UniProt Q95460)
T1 construct: endogenous in cells; host or cells: human hepatic myofibroblasts (HMF), alone or in co-culture with MAIT cells
Experiment: Surface expression of MR1 on hepatic myofibroblasts by flow cytometry
Assay type: cell-based
Conditions: 1 μM, 2 hrs at 37° C., PE-conjugated anti MR1 antibody (26.5)
Method: Analysis of Surface Expression of MR1 on Hepatic Myofibroblasts by Flow Cytometry
Hepatic myofibroblast cultures or HMF/MAIT cell co-cultures were exposed to 1 μM Acetyp 6-formylpterin (Ac 6-FP) (Schircks Laboratories, Switzerland) for 2 hrs at 37° C. Cells were then washed, trypsinised, labeled with PE-conjugated anti MR1 antibody (26.5)/isotype control and subjected to flow cytometric analysis.

- surface expression of MR1 on hepatic myofibroblasts: enhanced
Substance: Acetyl-6-formyl-pterin [Acetyl-6-formyl-pterin (6FP)]

Reference: US20210403573A1, “METHODS AND PHARMACEUTICAL COMPOSITIONS FOR THE TREATMENT OF FIBROSIS WITH AGENTS CAPABLE OF INHIBITING THE ACTIVATION OF MUCOSAL-ASSOCIATED INVARIANT T (MAIT) CELLS” (INSERM (Institut National de la Santé et de la Recherche …, priority 2017, published 2021)
